Experiments:
rat BCAT cytosolic form = target: T1, rat BCAT cytosolic form (Rattus norvegicus, UniProt P54690); test: In vitro coupled enzyme assay (glutamate dehydrogenase, NADH formation), rat BCATc; format: biochemical; conditions: recombinant rat BCATc, 37° C., 25 mM phosphate buffer pH 7.8; several values in a cell = repeat determinations; read-out: RrBCATc
T1 construct: made in house; host or cells: E. coli BL21(DE3)
T1 sequence (P54690 1-411): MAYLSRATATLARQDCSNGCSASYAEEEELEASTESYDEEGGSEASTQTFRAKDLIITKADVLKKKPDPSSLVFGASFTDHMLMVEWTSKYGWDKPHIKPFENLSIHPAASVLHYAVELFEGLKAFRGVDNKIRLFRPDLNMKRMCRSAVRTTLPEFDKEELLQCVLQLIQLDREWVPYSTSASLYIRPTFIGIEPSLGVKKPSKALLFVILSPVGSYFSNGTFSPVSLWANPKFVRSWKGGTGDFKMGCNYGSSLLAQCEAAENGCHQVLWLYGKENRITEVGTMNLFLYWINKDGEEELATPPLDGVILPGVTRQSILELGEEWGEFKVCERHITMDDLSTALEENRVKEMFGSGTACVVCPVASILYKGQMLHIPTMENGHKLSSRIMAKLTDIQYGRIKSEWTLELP
Experimental: In vitro enzyme assay—human Branched Chain Amino Acid Aminotransferase cytosolic form (hBCATc) and mitochondrial form (hBCATm) as well as rat BCAT cytosolic form were assayed at 37° C. in 25 mM phosphate buffer pH 7.8. In addition, 2 mM DTT and 12.5 mM […] were added to the assay mixture. A coupling enzyme assay was used to monitor the production of glutamate. The formation of NADH from NAD+ at […] was followed on a 96-well plate Molecular Devices plate reader.
The following components were used in this coupled assay: 4 mM ADP, 1 mM NAD+, 750 μM L-Leucine, 500 μM α-ketoglutarate, 10 μM pyridoxal phosphate, 1 unit glutamate dehydrogenase, and 1.25 μg of the appropriate BCAT enzyme. Inhibitions by compounds were assayed by adding various concentrations to this coupled assay procedure as a DMSO stock up to a 5% v/v DMSO/buffer ratio.
Enzyme Preparation—humanBCATc and ratBCATc were expressed in BL21(DE3) cells. A growing culture of cells was induced with 1 mM IPTG at room temperature overnight. These cells were harvested by centrifugation at 10,000 g for 20 minutes. The supernatant was discarded, and the cells were stored at −80° C. until needed. The protein was purified by the following method. The cell paste was resuspended in extraction buffer (0.1 M phosphate, pH 8.0, with 0.01 M Tris-HCL and 5 mM TCEP and then lysed on a French Press at 1000 psi. The lysate was centrifuged at 10,000 g for 15 minutes, and the pellet was discarded. The supernatant was loaded onto a Hitrap Chelating column previously charged with 0.1 M NiSO4 and washed with 3 to 4 column volumes of extraction buffer. The column was then washed with 0.01 Tris, pH 7.5, 10% glycerol, 150 mM NaCl, 5 mM TCEP for two column volumes. The column was then further washed with two column volumes of 0.1 M phosphate, pH 6.0, 0.01 M Tris, 10% glycerol and 750 mM NaCl. Finally, the column was washed with two column volumes of the same buffer plus 50 mM imidazole. The BCAT enzyme was then eluted with the same buffer but with 350 mM imidazole. The eluant was then dialyzed overnight against 10 mM phosphate buffer pH 8.0, 10% glycerol, and 5 mM TCEP. The dialyzed protein was then loaded onto a Q-sepharose column and eluted using a salt gradient. Active fractions were collected and further purified on a Superose-12 column to yield pure BCAT protein.

[1] = target: T2, human Branched Chain Amino Acid Aminotransferase cytosolic form (hBCATc) (Homo sapiens, UniProt P54687); test: In vitro coupled enzyme assay (glutamate dehydrogenase, NADH formation), human BCATc; format: biochemical; conditions: recombinant human BCATc, 37° C., 25 mM phosphate buffer pH 7.8; several values in a cell = repeat determinations; read-out: RhBCATc
T2 construct: made in house; host or cells: E. coli BL21(DE3)
T2 sequence (P54687 1-386): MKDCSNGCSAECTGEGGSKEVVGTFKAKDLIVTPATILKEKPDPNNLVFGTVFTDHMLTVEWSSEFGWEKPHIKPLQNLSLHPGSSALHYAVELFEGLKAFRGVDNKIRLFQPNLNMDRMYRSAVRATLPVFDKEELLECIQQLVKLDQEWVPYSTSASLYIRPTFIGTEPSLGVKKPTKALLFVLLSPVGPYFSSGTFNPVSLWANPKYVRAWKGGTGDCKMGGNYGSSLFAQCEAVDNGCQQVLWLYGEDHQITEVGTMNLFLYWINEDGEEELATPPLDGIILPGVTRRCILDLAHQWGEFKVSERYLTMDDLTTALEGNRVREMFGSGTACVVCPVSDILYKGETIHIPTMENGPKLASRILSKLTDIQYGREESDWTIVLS
Procedure, shortened: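 At 37 °C in 25 mM phosphate pH 7.8 with 2 mM DTT, 1.25 μg His-tag-purified E. coli-expressed BCAT transaminated 750 μM L-leucine with 500 μM α-ketoglutarate and 10 μM PLP. Glutamate was coupled via glutamate dehydrogenase (1 mM NAD+, 4 mM ADP) to NADH formation at 340 nm. Compounds were added in DMSO up to 5% v/v.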

Compound	IC50 (rat BCAT cytosolic form) [µM]	IC50 [1] [µM]
Cc1ccc2oc(C(=O)NNS(=O)(=O)c3ccccc3C)cc2c1 [Example 81, 2-Benzofurancarboxylic acid, 5-methyl-, 2-[2-(methylphenyl)sulfonyl]hydrazide]	0.31	1.74
Cc1ccc2oc(C(=O)NNS(=O)(=O)c3cccc(Cl)c3C)cc2c1 [Example 82, 2-Benzofurancarboxylic acid, 5-methyl-, 2-[(3-chloro-2-methylphenyl)sulfonyl]-hydrazide]	0.51	3.28
Cc1ccc2oc(C(=O)NNS(=O)(=O)c3cccc(Br)c3)cc2c1 [Example 83, 2-Benzofurancarboxylic acid, 5-methyl-, 2-[3-(bromophenyl)sulfonyl]hydrazide]	0.87	9.66
Cc1ccc2oc(C(=O)NNS(=O)(=O)c3cccc(Cl)c3)cc2c1 [Example 84, 2-Benzofurancarboxylic acid, 5-methyl-, 2-[(3-chlorophenyl)sulfonyl]hydrazide]	0.97	6.13
Cc1ccc2oc(C(=O)NNS(=O)(=O)c3ccccc3OC(F)(F)F)cc2c1 [Example 85, 2-Benzofurancarboxylic acid, 5-methyl-, 2-[[2-(trifluoromethoxy)phenyl]-sulfonyl]hydrazide]	1.39	21.2
Cc1cccc2cc(C(=O)NNS(=O)(=O)c3ccccc3)oc12 [Example 86, 2-Benzofurancarboxylic acid, 7-methyl-, 2-(phenylsulfonyl)hydrazide]	0.24	15.2
Cc1cccc2oc(C(=O)NNS(=O)(=O)c3ccccc3)cc12 [Example 87, 2-Benzofurancarboxylic acid, 4-methyl-, 2-(phenylsulfonyl)hydrazide]	1.16	41.1
Cc1c(C(=O)NNS(=O)(=O)c2ccccc2)oc2ccccc12 [Example 88, 2-Benzofurancarboxylic acid, 3-methyl-, 2-(phenylsulfonyl)hydrazide]	4	40
Cc1ccc2oc(C(=O)NNS(=O)(=O)c3ccccc3)c(C)c2c1 [Example 89, 2-Benzofurancarboxylic acid, 3,5-dimethyl-, 2-(phenylsulfonyl)hydrazide]	> 100	> 100
Cc1c(C(=O)NNS(=O)(=O)c2ccccc2)oc2ccc(Cl)cc12 [Example 90, 2-Benzofurancarboxylic acid, 5-chloro-3-methyl, 2-(phenylsulfonyl)hydrazide]	> 100	> 100
Nc1ccc2oc(C(=O)NNS(=O)(=O)c3ccccc3)cc2c1 [Example 91, 2-Benzofurancarboxylic acid, 5-amino-, 2-(phenylsulfonyl)hydrazide]	0.11	19.6
O=C(NNS(=O)(=O)c1ccccc1F)c1ccc2oc3ccccc3c2c1 [Example 92, 2-Dibenzofurancarboxylic acid, 2-[(2-fluorophenyl)sulfonyl]hydrazide]	1.1	12.1
O=C(NNS(=O)(=O)c1c(F)cccc1F)c1ccc2oc3ccccc3c2c1 [Example 93, 2-Dibenzofurancarboxylic acid, 2-(2,6-difluorophenylsulfonyl)hydrazide]	5.9	63.5
O=C(NNS(=O)(=O)c1ccccc1Br)c1ccc2oc3ccccc3c2c1 [Example 94, 2-Dibenzofurancarboxylic acid, 2-[(2-bromophenyl)sulfonyl]hydrazide]	0.72	5.5
O=C(NNS(=O)(=O)c1cccc(Br)c1)c1ccc2oc3ccccc3c2c1 [Example 95, 2-Dibenzofurancarboxylic acid, 2-[(3-bromophenyl)sulfonyl]hydrazide]	0.3	2.9
Cc1ccc(S(=O)(=O)NNC(=O)c2ccc3oc4ccccc4c3c2)cc1[N+](=O)[O-] [Example 96, 2-Dibenzofurancarboxylic acid, 2-[(4-methyl-3-nitrophenyl)sulfonyl]hydrazide]	36.3	51.6
O=C(NNS(=O)(=O)c1cc(C(F)(F)F)ccc1Cl)c1ccc2oc3ccccc3c2c1 [Example 97]	36.4	67.5
O=C(NNS(=O)(=O)c1ccccc1OC(F)(F)F)c1ccc2oc3ccccc3c2c1 [Example 98, 2-Dibenzofurancarboxylic acid, 2-[(2-trifluoromethoxyphenyl)sulfonyl]hydrazide]	0.65	2.8
O=C(NNS(=O)(=O)c1ccc(Br)cc1OC(F)(F)F)c1ccc2oc3ccccc3c2c1 [Example 99, 2-Dibenzofurancarboxylic acid, 2-[(4-bromo-2-trifluoromethoxyphenyl)sulfonyl]-hydrazide]	35.1	46.3
O=C(NNS(=O)(=O)c1ccccc1[N+](=O)[O-])c1ccc2oc3ccccc3c2c1 [Example 100, 2-Dibenzofurancarboxylic acid, 2-[(2-nitrophenyl)sulfonyl]hydrazide]	4	28.1
O=C(O)c1ccc(S(=O)(=O)NNC(=O)c2ccc3oc4ccccc4c3c2)cc1 [Example 101, 2-Dibenzofurancarboxylic acid, 2-[(4-carboxyphenyl)sulfonyl]hydrazide]	22	48.1
COc1cccc2cc(C(=O)NNS(=O)(=O)c3cccc(Cl)c3)oc12 [Example 102, 2-Benzofurancarboxylic acid, 7-methoxy-, 2-[(3-chlorophenyl)sulfonyl]hydrazide]	0.37	6
COc1cccc2cc(C(=O)NNS(=O)(=O)c3cccc(F)c3)oc12 [Example 103, 2-Benzofurancarboxylic acid, 7-methoxy-, 2-[(3-fluorophenyl)sulfonyl]hydrazide]	0.85	12
COc1cccc2cc(C(=O)NNS(=O)(=O)c3cccc(Cl)c3Cl)oc12 [Example 104, 2-Benzofurancarboxylic acid, 7-methoxy-, 2-[(2,3-dichlorophenyl)sulfonyl]-hydrazide]	1.4	23
COc1cccc2cc(C(=O)NNS(=O)(=O)c3ccc(F)c(Cl)c3)oc12 [Example 105, 2-Benzofurancarboxylic acid, 7-methoxy-, 2-[(3-chloro-4-fluorophenyl)sulfonyl]-hydrazide]	3.3	54
COc1ccc(Cl)cc1S(=O)(=O)NNC(=O)c1cc2cccc(OC)c2o1 [Example 106, 2-Benzofurancarboxylic acid, 7-methoxy-, 2-[(5-chloro-2-methoxyphenyl)-sulfonyl]hydrazide]	5.6	42
COc1ccc(Br)cc1S(=O)(=O)NNC(=O)c1cc2cccc(OC)c2o1 [Example 107, 2-Benzofurancarboxylic acid, 7-methoxy-, 2-[(5-bromo-2-methoxyphenyl)-sulfonyl]hydrazide]	7.5	41

From patent US20050004167A1, “Branched chain amino acid-dependent aminotransferase inhibitors and their use in the treatment of neurodegenerative diseases” (WARNER-LAMBERT COMPANY LLC, priority 2001, published 2005)
